# Laboratory results from patent publication US8822509B2, “Pain-relieving compositions and uses therefor” (priority 2006, dated 2014).
# Several values for one entry are separate records, joined by “and”; a condition that tells them apart may be missing. Equal entries are not always repeated. Entries after “also recorded” stand apart in the source; their conditions may differ.
# What was measured:
# [1] = biological target: T1, μ-opioid receptors (MOP receptors) (Mus musculus, UniProt P42866); type: cell-based
# T1 construct: expressed in transfected cells; host or cells: HEK293
# [2] = biological target: κ-opioid receptors (KOP receptors) (Mus musculus, UniProt P33534); experiment: Forskolin-stimulated cAMP responses in KOP-transfected HEK293 cells; details: KOP-transfected HEK293, entire concentration range tested
# Description: (§4) Non-transfected HEK293 cells were used as a control. Transfected HEK293 cells were maintained in Dulbecco's Modified Eagle's Medium (DMEM) supplemented with 10% fetal bovine serum (FBS) and geneticin (1 mg/mL). Non-transfected HEK293 cells were maintained in DMEM supplemented with 10% FBS.
# (§5) The functional interaction between opioids and opioid-like compounds and specific opioid G-protein-coupled receptors (GPCRs) was assessed by measuring changes in intracellular cAMP levels relative to basal levels. The Alphascreen cAMP functional assay measures agonist and antagonist activity of GPCRs by stimulating cells to either increase or decrease intracellular cAMP levels. The assay was performed using an Alphascreen cAMP kit according to the manufacturer's instructions. […]
# (§6) Detection of cAMP is based on the competition between intracellular cAMP and biotinylated cAMP linked streptavidin-coated donor beads for anti-cAMP conjugated acceptor beads. When the donor and acceptor beads are in close proximity visible light emitted at 520-620 nm is detected using the Envision multilabel plate reader. […]
# (§7) The assay performance was optimized by using cells at low passage number and at 70-90% confluence. […] The cell concentration was determined using a haemocytometer. […] Note that the cell number will influence the cAMP levels measured before (basal) and after adenylyl cyclase activation. […]
# MOP receptor = biological target: T2, MOP receptor (Mus musculus, UniProt P42866); experiment: Displacement of specific binding of [3H]-DAMGO from membranes of MOP-transfected HEK293 cells
# T2 construct: expressed in transfected cells; host or cells: HEK293 (membranes of MOP-HEK cells)
# Description: A binding assay was performed to determine whether Compound 1 binds at the MOP receptor.
# Stably transfected MOP-HEK cells were plated in a 3×10 cm dish and washed with (3×5 mL) 50 mM Tris-HCl (pH 7.4) when sufficiently confluent. The cells were scraped off the dish in 1.5 mL 50 mM Tris-HCl (pH 7.4) using a transfer pipette and place in 15 mL falcon tubes. The cells were sonicated for a 5 second burst and placed on ice. The protein concentration was estimated. The cells were transferred to a 1.5 mL eppendorf tube and centrifuged at 18,000 rcf for 30 minutes at 4° C. The supernatant was removed and the cells resuspended in 50 mM Tris-HCl (pH 7.4) and 1 mg/mL BSA. An aliquot containing 30-50 μg/200 μL protein was taken and [^3H]DAMGO was added (200 μL in Tris-HCl, pH 7.4) with varying concentrations of unlabelled [D-Ala^2, N-Me-Phe^4, Gly^5-ol]-enkephalin acetate (DAMGO) or Compound 1 (200 μL in Tris-HCl, pH 7.4), total volume 600 μL. The solution was incubated for 1 hour at room temperature with slow rotation.
# [3] = system: hindpaws of control non-diabetic rats; experiment: Antinociception by von Frey PWT in control non-diabetic rats; type: in vivo, Wistar rats; details: single s.c. bolus; morphine 1.8-21.4 μmol/kg, Compound 1 2-20 fmol/kg
# Description: (§1) Briefly, baseline PWTs were determined for both hindpaws prior to each antinociceptive testing session in the non-diabetic control group at week 0 as well as in groups of STZ-diabetic rats at 10, 14 and 24 wks.
# (§2) The PWT vs time data were normalized by subtracting the pre-dosing baseline PWT values for each individual rat to obtain ΔPWT values as follows: Normalized (Δ)PWT value=Post-treatment PWT value−PWT value prior to treatment.
# (§3) ΔPWT versus time curves were then constructed. Trapezoidal integration was used to estimate ΔPWT AUC values for individual rats in the non-diabetic and STZ-diabetic rat treatment groups. ΔPWT AUC versus dose curves were constructed and GraphPad™ Prism was used to estimate the ˜ED50 values.
# [4] = system: non-transfected HEK293 cells; experiment: Forskolin-stimulated cAMP responses in non-transfected HEK293 cells; details: non-transfected HEK293, entire concentration range tested
# Description: as §4, §5, §6, §7
# [5] = biological target: T1, μ-opioid receptors (MOP receptors); type: cell-based; details: 2% βCD 1 h 37° C.; reversed by βCD-cholesterol complexes
# Description: Briefly, HEK-MOP cells were pre-incubated with 2% (2-hydroxypropyl)-β-cyclodextrin (βCD) for 1 h at 37° C. to deplete cholesterol from caveloae in the cell membrane. Cells were washed with DMEM and then utilized in the forskolin-stimulated cAMP assay as described above. […] Cells were washed with DMEM and then utilized in the forskolin-stimulated cAMP assay as described above.
# [6] = system: tactile (mechanical) allodynia in hindpaws of STZ-diabetic rats; experiment: Anti-allodynia by von Frey paw withdrawal thresholds (PWT) in STZ-diabetic rats; type: in vivo, Wistar rats
# Description: Following this, the jugular cannula was withdrawn, the vein tied off, and the incision sutured. Following surgery, rats received antibiotic prophylaxis in the form of topical dusting powder over the sutured incisions, as well as a subcutaneous injection of benzylpenicillin (60 mg). Rats were placed in individual cages, kept warm and monitored closely during the surgical recovery period. Rats were classified as diabetic if on day 10 post-STZ administration, their daily water intake was ≧100 mL and their corresponding blood glucose levels (BGLs) were ≧15 mM.
# Calibrated von Frey filaments were used to document the time course for the development and maintenance of tactile allodynia (defining symptom of PDN).
# as §1, §2, §3
# [7] = biological target: δ-opioid receptors (DOP receptors) (Mus musculus, UniProt P32300); experiment: Forskolin-stimulated cAMP responses in DOP-transfected HEK293 cells; details: DOP-transfected HEK293, entire concentration range tested
# Description: as §4, §5, §6, §7
# STZ-diabetic rats = experiment: Tolerance development (7-day s.c. infusion, 2-day washout) in STZ-diabetic rats, von Frey PWT; type: in vivo
# [8] = In vitro NO release (Total NOx, modified Griess reagent assay)
# Description: Briefly, HEK-MOP cells were seeded at 1×10^5 cells/mL and grown in 10 cm plates to 90% confluence. Four hours prior to experimentation, cell medium was replaced with phenol red-free DMEM. […] Following removal of each supernatant sample, it was replaced with 500 μL of phenol red-free DMEM. Samples were immediately placed on ice until NOx concentrations were quantified.
# Sample aliquots (100 μL) were added to 96-well plates in duplicates. Nitrate was first converted to nitrite to determine total NOx concentrations with the addition of 100 μL aliquots of vanadium (III) chloride in 1M HCl (800 mg/100 mL) per well, followed by 100 μL aliquots of modified Griess reagent which converted nitrite to a deep purple azo derivative for spectrophotometric quantification at 560 nm using an Envision Multilabel Plate Reader (PerkinElmer Life Sciences). […] Total NOx and nitrite concentration was determined through inverse prediction against the nitrite standard curve.
# [9] = 10 wks post-STZ, Compound 1 s.c. (FIG. 3B)
# [10] = 14 and 24 wks post-STZ, Compound 1 80 and 800 pmol/kg s.c.
# [11] = STZ-diabetic rats, second bolus Compound 1 800 pmol/kg after 2-day washout
# [12] = naïve STZ-diabetic rats, first s.c. bolus
# T1 sequence (P42866 whole entry): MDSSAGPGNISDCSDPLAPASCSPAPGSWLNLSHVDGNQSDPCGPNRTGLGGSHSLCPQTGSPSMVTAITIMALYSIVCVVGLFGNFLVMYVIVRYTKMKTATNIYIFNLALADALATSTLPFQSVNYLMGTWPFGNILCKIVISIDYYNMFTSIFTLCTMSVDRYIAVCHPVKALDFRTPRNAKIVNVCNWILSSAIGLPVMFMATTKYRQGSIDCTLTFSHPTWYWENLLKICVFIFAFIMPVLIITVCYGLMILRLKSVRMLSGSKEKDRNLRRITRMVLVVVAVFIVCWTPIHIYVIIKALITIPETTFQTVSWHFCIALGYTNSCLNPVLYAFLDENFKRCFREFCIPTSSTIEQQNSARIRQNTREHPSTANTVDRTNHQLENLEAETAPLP
# κ-opioid receptors (KOP receptors), sequence (P33534 whole entry): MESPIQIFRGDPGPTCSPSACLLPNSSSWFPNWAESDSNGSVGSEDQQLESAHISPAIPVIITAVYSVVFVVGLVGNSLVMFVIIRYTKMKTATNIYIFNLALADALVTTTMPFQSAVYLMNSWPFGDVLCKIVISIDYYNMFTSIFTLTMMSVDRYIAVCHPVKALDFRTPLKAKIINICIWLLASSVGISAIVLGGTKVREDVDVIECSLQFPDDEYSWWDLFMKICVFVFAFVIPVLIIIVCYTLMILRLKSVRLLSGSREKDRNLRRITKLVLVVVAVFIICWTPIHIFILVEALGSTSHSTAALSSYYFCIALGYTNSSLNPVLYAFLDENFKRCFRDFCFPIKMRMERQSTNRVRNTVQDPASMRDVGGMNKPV
# T2 sequence (P42866 whole entry): as the sequence (P42866 whole entry) above
# δ-opioid receptors (DOP receptors), sequence (P32300 whole entry, the tested form may be a part): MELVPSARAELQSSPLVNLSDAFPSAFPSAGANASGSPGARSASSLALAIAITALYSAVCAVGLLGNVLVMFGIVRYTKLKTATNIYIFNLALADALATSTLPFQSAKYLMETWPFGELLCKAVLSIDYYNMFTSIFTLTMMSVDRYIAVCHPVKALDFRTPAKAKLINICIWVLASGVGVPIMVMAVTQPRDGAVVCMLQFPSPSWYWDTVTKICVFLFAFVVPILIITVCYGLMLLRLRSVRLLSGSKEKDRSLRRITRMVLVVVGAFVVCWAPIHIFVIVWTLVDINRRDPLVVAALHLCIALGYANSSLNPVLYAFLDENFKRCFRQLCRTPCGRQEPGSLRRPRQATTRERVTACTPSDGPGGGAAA
compound,measurement,setting,value
"Cc1c(C=O)no[n+]1[O-] [Compound 1, 4-formyl-3-methyl-1,2,5-oxadiazole-2-oxide]",effect of naloxone pre-incubation on inhibition of forskolin-stimulated cAMP formation,[1],not by naloxone
same,inhibition of forskolin-stimulated cAMP formation,"[1]; MOP-transfected HEK293, mM, pM and aM concentrations",inhibited forskolin-stimulated cAMP formation
same,effect of ODQ pre-incubation on modulation of forskolin-stimulated cAMP formation,[1]; ODQ 10 μM,did not significantly attenuate
same,effect of pertussis toxin pre-incubation on inhibition of forskolin-stimulated cAMP formation,"[1]; PTX 100 ng/mL 16 h, Compound 1 1 aM, morphine 1 μM",abolished by pre-incubation with pertussis toxin
same,inhibition of forskolin-stimulated cAMP formation,[2],did not appear to inhibit
same,binding to MOP receptors ([3H]-DAMGO displacement),MOP receptor,does not bind significantly
same,antinociception in the hindpaws of control non-diabetic rats,[3],dose-dependent antinociception
same,inhibition of forskolin-stimulated cAMP formation,[4],did not appear to inhibit
same,effect of lipid raft/caveolae depletion on cAMP effects,[5],inhibited the effects of Compound 1; also recorded: sensitive to removal of lipid rafts/caveolae
same,relief of mechanical allodynia at time of peak effect,"[6]; 10 wks post-STZ, Compound 1 8 fmol/kg s.c.",complete relief of mechanical allodynia
same,mean duration of action,[6]; [9],> 3 h
same,peak anti-allodynic response (PWT),[6]; [9],10.6 ± 0.5 g
same,time of peak anti-allodynic response post-dosing,[6]; [9],~75 min
same,alleviation of mechanical allodynia at time of peak response,[6]; [10],fully alleviated
same,duration of action,[6]; [10],≥ 3 h
same,anti-allodynic effect of doses used at week 10,"[6]; 14 weeks post-STZ, Compound 1 fmol/kg doses",no longer effective
same,anti-allodynia in the hindpaws of STZ-diabetic rats,"[6]; single s.c. bolus at 10, 14, 24 wks post-STZ",dose-dependent anti-allodynia/antinociception
same,inhibition of forskolin-stimulated cAMP formation,[7],did not appear to inhibit
same,tolerance after 7-day s.c. infusion,STZ-diabetic rats; STZ-diabetic rats,completely tolerant
same,anti-allodynia after second bolus (tolerance status),"STZ-diabetic rats; STZ-diabetic rats, after 2-day washout, morphine 10.5 μmol/kg, Compound 1 800 pmol/kg",significant reversal of tolerance
same,mean duration of action,STZ-diabetic rats; [11],2 to 3 h
same,time of peak anti-allodynia post-dosing,STZ-diabetic rats; [11],~1 h
same,mean duration of action,STZ-diabetic rats; [12],~4 h
same,time of peak anti-allodynia post-dosing,STZ-diabetic rats; [12],1 h
same,mean (±SEM) peak PWT,"STZ-diabetic rats; naïve STZ-diabetic rats, Compound 1 800 pmol/kg, morphine 10.4 μmol/kg s.c. bolus",11.6 (±0.6) g
same,Release of NO (Total NOx %),"[8]; Compound 1, 1 mM + L-Cysteine 5 mM, 6-h (b277 prints 50 mM)",2.7±0.3% and 2.7 + 0.3%
same,Release of NO (Total NOx %),"[8]; Compound 1, 1 mM, 6-h study period",1.8% and 1.8±0.3%
same,1 Hour Total NOx,"[8]; NOx analysis at 1 hour, assay of Example 9",2.08 µM and 2.19 µM
same,6 Hours Total NOx,"[8]; NOx analysis at 6 hours, assay of Example 9",2.52 µM
